Where a SMILES comes first, the peptide text is derived from it. Where no end group is shown, it is not given here. [ ]: non-standard residue; d: D form. The star is where a group is joined. Sta = CC(C)C[C@H](N)[C@@H](O)CC(=O)O; Nle = CCCC[C@H](N)C(=O)O; Cbz = O=C(OCc1ccccc1)*; Boc = CC(C)(C)OC(=O)*

One experiment deals with HIV-1 IIIB. The experiment is described as follows: Antiviral cytotoxicity (MTT) assay with MT4 cells, HIV-1 IIIB. To be noted: MT-4 cells, 5 days, average of 2 or 3 experiments. The experiment is classed as cell-based.
The test system of a further experiment is HIV NL4-3. The experiment is described as follows: Antiviral cytotoxicity (MTT) assay with MT4 cells, HIV NL4-3. The experiment is classed as cell-based, HIV-1. To be noted: MT-4 cells, 5 days, average of 2 or 3 experiments. As for the experimental part: Antiviral potency of the peptides was analyzed against HIV-1 HXB2 or NLA-3 strains using a cytotoxicity assay with MT4 cells as previously described (ref 1-3) with minor modifications. MT-4 cells (1.5×10^4/ml) were exposed to 200 50% tissue culture infective doses (TCID50) of viruses in the presence of various concentrations of test compound in 96 well microtiter plates and incubated at 37° C. for 5 days. Cytotoxicity of HIV was measured by the addition of 3-(4,5-dimethylthiazol-2-yl)-2,5-diphenytetrazolium bromide (MMI) solution to each well to a final concentration of 0.75 mg/ml, and incubation for 1 hour a 37° C. After incubation, cells were dissolved in isopropanoyrriton-X 100/HCl (1000:50:25) solution. Absorbance was monitored in a microplate reader (Spectramax, Molecular Devices) at 540 rm and 690 nm. MT-4 cells were obtained from the AIDS Research and Reference Reagent Program (ARRRP, Division of AIDS, NIAID, NIH: MT-4 from Dr. D. Richman). Cells were propagated in RPMI 1640 growth medium supplemented with 10% fetal bovine serum, 50U of penicillin and 50 μg of streptomycin per ml ([Ivitrogen, Carlsbad Calif.).

Another experiment concerns the target T1, Human plasma renin (Homo sapiens, UniProt P00797).
T1 construct: plasma renin
T1 sequence (P00797 67-406): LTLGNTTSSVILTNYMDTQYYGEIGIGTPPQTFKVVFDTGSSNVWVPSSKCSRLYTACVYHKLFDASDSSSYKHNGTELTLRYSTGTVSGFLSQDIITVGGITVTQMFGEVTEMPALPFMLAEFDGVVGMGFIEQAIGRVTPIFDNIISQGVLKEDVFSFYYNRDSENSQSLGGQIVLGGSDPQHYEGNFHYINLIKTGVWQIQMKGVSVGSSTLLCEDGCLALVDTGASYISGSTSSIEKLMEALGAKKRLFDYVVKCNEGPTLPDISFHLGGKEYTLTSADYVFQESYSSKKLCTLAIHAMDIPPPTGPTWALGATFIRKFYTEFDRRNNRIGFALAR
To be noted: cited from earlier work; for IC50: literature values.

A word on the IC50: it is the midpoint of a concentration-inhibition curve. With `CCCC[C@H](NC(=O)[C@H](Cc1c[nH]c2ccccc12)NC(C)=O)C(=O)N[C@@H](CCC(=O)O)C(=O)N[C@@H](Cc1c[nH]c2ccccc12)C(=O)N[C@@H](CC(=O)O)C(=O)N[C@@H](CCCNC(=N)N)C(=O)N[C@@H](CCCCN)C(=O)N[C@H](C(=O)N[C@@H](CCC(=O)O)C(=O)N[C@@H](CCC(=O)O)C(=O)N[C@@H](Cc1ccc(O)cc1)C(=O)N[C@H](C(=O)N[C@@H](CCCCN)C(=O)N[C@@H](CCCCN)C(=O)N[C@H](C(=O)N[C@@H](CCCCN)C(=O)N[C@@H](CCCCN)C(=O)N[C@@H](CC(C)C)C(=O)N[C@H](C(=O)N[C@@H](CCC(=O)O)C(=O)N[C@@H](CCC(=O)O)C(=O)N[C@@H](CO)C(=O)N[C@@H](CCC(N)=O)C(=O)N[C@@H](CCC(=O)O)C(=O)N[C@@H](CC(C)C)C(=O)N[C@@H](CCC(N)=O)C(=O)N[C@@H](CCC(=O)O)C(=O)N[C@@H](CCCCN)C(=O)N[C@@H](CC(N)=O)C(=O)N[C@@H](CCC(=O)O)C(=O)N[C@@H](CCCCN)C(=O)N[C@@H](CCC(=O)O)C(=O)N[C@@H](CC(C)C)C(=O)N[C@@H](CCCCN)C(N)=O)[C@@H](C)CC)[C@@H](C)CC)[C@@H](C)O)[C@@H](C)CC` [peptide 7, Ac-WXEWDRKIEEYTKKIKKLIEESQELQEKNEKELK-NH2] (Ac-W[Nle]EWDRKIEEYTKKIKKLIEESQELQEKNEKELK-NH2), the IC50 with HIV-1 IIIB stood at 2.4 nM; in the experiment on HIV NL4-3, 1.1 nM. As to Iva-Phe-Nle-Sta-Ala-Sta, the IC50 on Human plasma renin was 28 nM. Turning to PHPFH[Sta]IF-NH2, the IC50 at Human plasma renin was 3 nM. As to `CCCC[C@H](NC(=O)[C@H](Cc1c[nH]c2ccccc12)NC(C)=O)C(=O)N[C@@H](CCC(=O)O)C(=O)N[C@@H](Cc1c[nH]c2ccccc12)C(=O)N[C@@H](CC(=O)O)C(=O)N[C@@H](CCCNC(=N)N)C(=O)N[C@@H](CCC(=O)O)C(=O)N[C@H](C(=O)N[C@@H](CC(N)=O)C(=O)N[C@@H](CC(N)=O)C(=O)N[C@@H](Cc1ccc(O)cc1)C(=O)N[C@H](C(=O)N[C@@H](CO)C(=O)N[C@@H](CC(C)C)C(=O)N[C@H](C(=O)N[C@@H](Cc1c[nH]cn1)C(=O)N[C@@H](CO)C(=O)N[C@@H](CCC(N)=O)C(=O)N[C@H](C(=O)N[C@@H](CCC(=O)O)C(=O)N[C@@H](CCC(=O)O)C(=O)N[C@@H](CO)C(=O)N[C@@H](CCC(N)=O)C(=O)N[C@@H](CC(N)=O)C(=O)N[C@@H](CCC(N)=O)C(=O)N[C@@H](CCC(N)=O)C(=O)N[C@@H](CCC(=O)O)C(=O)N[C@@H](CCCCN)C(=O)N[C@@H](CC(N)=O)C(=O)N[C@@H](CCC(=O)O)C(=O)N[C@@H](CCC(N)=O)C(=O)N[C@@H](CCC(=O)O)C(=O)N[C@@H](CC(C)C)C(=O)N[C@@H](CC(C)C)C(N)=O)[C@@H](C)CC)[C@@H](C)CC)[C@@H](C)O)[C@@H](C)CC` [peptide 5, Ac-WXEWDREINNYTSLIHSQIEESQNQQEKNEQELL-NH2] (Ac-W[Nle]EWDREINNYTSLIHSQIEESQNQQEKNEQELL-NH2), the IC50 is 6.6 nM with HIV-1 IIIB and 200 nM with HIV NL4-3.

Consider PEC-Phe-His-ACHPA-ILeNHC(CH2OH)2CH3, for which the IC50 at Human plasma renin is < 0.01 nM. For Ac-(HCO-Trp)-Pro-Phe-His-Sta---Ile-NH2, the IC50 at Human plasma renin was 0.1 nM.

Turning to Ac-HPFV[Sta]LF-NH2, the IC50 at Human plasma renin is 32 nM.

In general, Ki refers to the equilibrium dissociation constant of an inhibitor or competing ligand from its target. For Iva-His-Pro-Phe-His-Sta---Ala-Sta, at Human plasma renin (cell marked (Ki)), the Ki is 1.9 nM.

As to “Boc-Phe-His-Cha-(CH2NH)Val-NH-2(S)-Me(Bu)”, the IC50 at Human plasma renin was 86 nM. Regarding `CCCC[C@H](NC(=O)[C@H](Cc1c[nH]c2ccccc12)NC(C)=O)C(=O)N[C@@H](CCC(=O)O)C(=O)N[C@@H](Cc1c[nH]c2ccccc12)C(=O)N[C@@H](CC(=O)O)C(=O)N[C@@H](CCCNC(=N)N)C(=O)N[C@@H](CCC(=O)O)C(=O)N[C@@H](CCC(N)=O)C(=O)N[C@@H](CC(N)=O)C(=O)N[C@@H](CC(N)=O)C(=O)N[C@@H](Cc1ccc(O)cc1)C(=O)N[C@H](C(=O)N[C@@H](CO)C(=O)N[C@@H](CC(C)C)C(=O)N[C@H](C(=O)N[C@@H](Cc1c[nH]cn1)C(=O)N[C@@H](CO)C(=O)N[C@@H](CC(C)C)C(=O)N[C@H](C(=O)N[C@@H](CCC(=O)O)C(=O)N[C@@H](CCC(=O)O)C(=O)N[C@@H](CO)C(=O)N[C@@H](CCC(N)=O)C(=O)N[C@@H](CC(N)=O)C(=O)N[C@@H](CCC(N)=O)C(=O)N[C@@H](CCC(N)=O)C(=O)N[C@@H](CCC(=O)O)C(=O)N[C@@H](CCCCN)C(=O)N[C@@H](CC(N)=O)C(=O)N[C@@H](CCC(=O)O)C(=O)N[C@@H](CCC(N)=O)C(=O)N[C@@H](CCC(=O)O)C(=O)N[C@@H](CC(C)C)C(=O)N[C@@H](CC(C)C)C(N)=O)[C@@H](C)CC)[C@@H](C)CC)[C@@H](C)O` [peptide 2, Ac-WXEWDREQNNYTSLIHSLIEESQNQQEKNEQELL-NH2] (Ac-W[Nle]EWDREQNNYTSLIHSLIEESQNQQEKNEQELL-NH2), the IC50 in the experiment with HIV-1 IIIB came out at 2.4 nM; in the experiment with HIV NL4-3, 18 nM. Take Boc-Phe-His-ACHPA---Leu-AMB: at Human plasma renin, the IC50 is 1 nM. In the case of “Pro-His-Pro-Phe-His-Leu(CH2NH)Val-Ile-His-Lys”, on Human plasma renin, the IC50 is 10 nM.

Boc-Pro-Phe-His-Sta---Ile-AMP: on Human plasma renin, the IC50 was 4.1 nM. For the compound Boc-Phe-His-Sta---Leu-NHCH2Ph, on Human plasma renin, the IC50 is 26 nM. On to “Boc-His-Pro-Phe-His-Leu(CH(OH)CH2)Val-Ile-His-OH”, for which the IC50 on Human plasma renin is 0.7 nM. For Ac-WPFH[Sta]I-NH2, at Human plasma renin, the IC50 is 16 nM. With `CCCC[C@H](NC(=O)[C@H](Cc1c[nH]c2ccccc12)NC(C)=O)C(=O)N[C@@H](CCC(=O)O)C(=O)N[C@@H](Cc1c[nH]c2ccccc12)C(=O)N[C@@H](CC(=O)O)C(=O)N[C@@H](CCCNC(=N)N)C(=O)N[C@@H](CCC(=O)O)C(=O)N[C@@H](Cc1c[nH]c2ccccc12)C(=O)N[C@@H](CC(N)=O)C(=O)N[C@@H](CC(N)=O)C(=O)N[C@@H](Cc1ccc(O)cc1)C(=O)N[C@H](C(=O)N[C@@H](CO)C(=O)N[C@@H](CC(C)C)C(=O)N[C@H](C(=O)N[C@@H](Cc1c[nH]cn1)C(=O)N[C@@H](CO)C(=O)N[C@@H](CC(C)C)C(=O)N[C@H](C(=O)N[C@@H](CCC(=O)O)C(=O)N[C@@H](CCC(=O)O)C(=O)N[C@@H](CO)C(=O)N[C@@H](CCC(N)=O)C(=O)N[C@@H](CC(N)=O)C(=O)N[C@@H](CCC(N)=O)C(=O)N[C@@H](CCC(N)=O)C(=O)N[C@@H](CCC(=O)O)C(=O)N[C@@H](CCCCN)C(=O)N[C@@H](CC(N)=O)C(=O)N[C@@H](CCC(=O)O)C(=O)N[C@@H](CCC(N)=O)C(=O)N[C@@H](CCC(=O)O)C(=O)N[C@@H](CC(C)C)C(=O)N[C@@H](CC(C)C)C(N)=O)[C@@H](C)CC)[C@@H](C)CC)[C@@H](C)O` [peptide 3, Ac-WXEWDREWNNYTSLIHSLIEESQNQQEKNEQELL-NH2] (Ac-W[Nle]EWDREWNNYTSLIHSLIEESQNQQEKNEQELL-NH2), the half-inhibitory concentration (IC50) in the experiment on HIV-1 IIIB is 1.7 nM; with HIV NL4-3 it was 7.6 nM.

On to `CCCC[C@H](NC(=O)[C@H](Cc1c[nH]c2ccccc12)NC(C)=O)C(=O)N[C@@H](CCC(=O)O)C(=O)N[C@@H](Cc1c[nH]c2ccccc12)C(=O)N[C@@H](CC(=O)O)C(=O)N[C@@H](CCCNC(=N)N)C(=O)N[C@@H](CCCCN)C(=O)N[C@H](C(=O)N[C@@H](CCC(=O)O)C(=O)N[C@@H](CCC(=O)O)C(=O)N[C@@H](Cc1ccc(O)cc1)C(=O)N[C@H](C(=O)N[C@@H](CCCCN)C(=O)N[C@@H](CCCCN)C(=O)N[C@H](C(=O)N[C@@H](CCC(=O)O)C(=O)N[C@@H](CCC(=O)O)C(=O)N[C@@H](CC(C)C)C(=O)N[C@H](C(=O)N[C@@H](CCCCN)C(=O)N[C@@H](CCCCN)C(=O)N[C@@H](CO)C(=O)N[C@@H](CCC(N)=O)C(=O)N[C@@H](CCC(=O)O)C(=O)N[C@@H](CCC(N)=O)C(=O)N[C@@H](CCC(N)=O)C(=O)N[C@@H](CCC(=O)O)C(=O)N[C@@H](CCCCN)C(=O)N[C@@H](CC(N)=O)C(=O)N[C@@H](CCC(=O)O)C(=O)N[C@@H](CCCCN)C(=O)N[C@@H](CCC(=O)O)C(=O)N[C@@H](CC(C)C)C(=O)N[C@@H](CCCCN)C(N)=O)[C@@H](C)CC)[C@@H](C)CC)[C@@H](C)O)[C@@H](C)CC` [peptide 9, Ac-WXEWDRKIEEYTKKIEELIKKSQEQQEKNEKELK-NH2] (Ac-W[Nle]EWDRKIEEYTKKIEELIKKSQEQQEKNEKELK-NH2), for which the IC50 in the experiment with HIV-1 IIIB was determined as 1.7 nM; in the experiment with HIV NL4-3, 0.9 nM. On to PHPFH[Sta]IH[dK], for which, at Human plasma renin, the IC50 is 26 nM. As for Ac-His-Pro-Phe-His-ACHPA---Leu-Phe-NH2, at Human plasma renin, the IC50 is 0.5 nM. In the case of Boc-Phe-His-Sta---Leu-AMB, the IC50 at Human plasma renin was 9 nM. On to Boc-FH[Sta]A[Sta]-OMe, for which the IC50 on Human plasma renin was 27 nM. For the compound Cbz-RRPFH[Sta]IHK(Boc)-OMe, the IC50 on Human plasma renin was 1 nM.

For the compound Boc-Phe-His-Sta---Ile-AMP, the IC50 on Human plasma renin is 6 nM.

The values above are taken from US20070207952A1, “Long Acting Biologically Active Conjugates” (priority 2003, published 2007).
